Assay results: patent US6977262B2, “Dihydropyrazolopyridine compounds and pharmaceutical use thereof” (Mitsubishi Pharma Corporation, priority 2001, dated 2005)

SMILES	melting point [°C]
CCCC1=C(C#N)C(c2ccccc2Cl)c2cnn(C(=O)Nc3ccccc3)c2N1 (stereo not drawn) [Example 283, 4-(2-Chlorophenyl)-5-cyano-4,7-dihydro-1-phenylcarbamoyl-6-propyl-1 H-pyrazolo[3,4-b]pyridine]	138 to 140
CCCC1=C(C#N)C(c2ccccc2Cl)c2cn(C(=O)Nc3ccccc3)nc2N1 (stereo not drawn) [Example 284, 4-(2-Chlorophenyl)-5-cyano-4,7-dihydro-2-phenylcarbamoyl-6-propyl-2H-pyrazolo[3,4-b]pyridine]	167 to 171
CCCC1=C(C#N)C(c2cccc3nonc23)c2cn(C(=O)OC(C)(C)C)nc2N1 (stereo not drawn) [Example 288, 4-(2,1,3-Benzoxadiazol-4-yl)-2-tert-butoxycarbonyl-5-cyano-4,7-dihydro-6-propyl-2H-pyrazolo[3,4-b]pyridine]	168 to 170
CCCC1=C(C#N)C(c2ccccc2Cl)c2c(n[nH]c2-c2ccc(OC)cc2)N1 (stereo not drawn) [Example 290, 4-(2-Chlorophenyl)-5-cyano-4,7-dihydro-3-(4-methoxyphenyl)-6-propyl-2H-pyrazolo[3,4-b]pyridine]	284
N#CC1=C(c2ccc(Br)s2)Nc2n[nH]cc2C1c1cccc2nonc12 (stereo not drawn) [Example 291, 4-(2,1,3-Benzoxadiazol-4-yl)-6-(2-bromothiophen-5-yl)-5-cyano-4,7-dihydro-2H-pyrazolo[3,4-b]pyridine]	208
Cc1ccsc1C1=C(C#N)C(c2cccc3nonc23)c2c[nH]nc2N1 (stereo not drawn) [Example 292, 4-(2,1,3-Benzoxadiazol-4-yl)-5-cyano-4,7-dihydro-6-(3-methylthiophen-2-yl)-2H-pyrazolo[3,4-b]pyridine]	202
COCn1cc(C2=C(C#N)C(c3cccc4nonc34)c3c[nH]nc3N2)c2ccccc21 (stereo not drawn) [Example 293, 4-(2,1,3-Benzoxadiazol-4-yl)-5-cyano-4,7-dihydro-6-(1-methoxymethylindol-3-yl)-2H-pyrazolo[3,4-b]pyridine]	200
CCCC1=C(C#N)C(c2ccccc2Cl)c2c(n[nH]c2-c2cccs2)N1 (stereo not drawn) [Example 294, 4-(2-Chlorophenyl)-5-cyano-4,7-dihydro-6-propyl-3-(thiophen-2-yl)-2H-pyrazolo[3,4-b]pyridine]	256
CCCC1=C(C#N)C(c2ccccc2Cl)c2c(n[nH]c2-c2ccco2)N1 (stereo not drawn) [Example 295, 4-(2-Chlorophenyl)-5-cyano-4,7-dihydro-3-(furan-2-yl)-6-propyl-2H-pyrazolo[3,4-b]pyridine]	253
CCCC1=C(C#N)C(c2ccccc2Cl)c2c(n[nH]c2-c2ccccc2OC)N1 (stereo not drawn) [Example 296, 4-(2-Chlorophenyl)-5-cyano-4,7-dihydro-3-(2-methoxyphenyl)-6-propyl-2H-pyrazolo[3,4-b]pyridine]	> 270
CCCC1=C(C#N)C(c2ccccc2Cl)c2c(n[nH]c2-c2cccc(OC)c2)N1 (stereo not drawn) [Example 297, 4-(2-Chlorophenyl)-5-cyano-4,7-dihydro-3-(3-methoxyphenyl)-6-propyl-2H-pyrazolo[3,4-b]pyridine]	239
N#CC1=C(c2ccc(Cl)s2)Nc2n[nH]cc2C1c1cccc2nonc12 (stereo not drawn) [Example 298, 4-(2,1,3-Benzoxadiazol-4-yl)-6-(2-chlorothiophen-5-yl)-5-cyano-4,7-dihydro-2H-pyrazolo[3,4-b]pyridine]	210
Cc1ccc(C2=C(C#N)C(c3cccc4nonc34)c3c[nH]nc3N2)s1 (stereo not drawn) [Example 299, 4-(2,1,3-Benzoxadiazol-4-yl)-5-cyano-4,7-dihydro-6-(2-methylthiophen-5-yl)-2H-pyrazolo[3,4-b]pyridine]	192
CCCC1=C(C#N)C(c2ccccc2Cl)c2c(n[nH]c2-c2cccc3ccccc23)N1 (stereo not drawn) [Example 300, 4-(2-Chlorophenyl)-5-cyano-4,7-dihydro-3-(naphthalen-1-yl)-6-propyl-2H-pyrazolo[3,4-b]pyridine]	254
CCCC1=C(C#N)C(c2ccccc2Cl)c2c(n[nH]c2-c2ccc3ccccc3c2)N1 (stereo not drawn) [Example 301, 4-(2-Chlorophenyl)-5-cyano-4,7-dihydro-3-(naphthalen-2-yl)-6-propyl-2H-pyrazolo[3,4-b]pyridine]	> 270
CCCC1=C(C#N)C(c2ccccc2Cl)c2c(n[nH]c2CCC)N1 (stereo not drawn) [Example 302, 4-(2-Chlorophenyl)-5-cyano-4,7-dihydro-3,6-dipropyl-2H-pyrazolo[3,4-b]pyridine]	237
CCCCc1[nH]nc2c1C(c1ccccc1Cl)C(C#N)=C(CCC)N2 (stereo not drawn) [Example 304, 3-Butyl-4-(2-chlorophenyl)-5-cyano-4,7-dihydro-6-propyl-2H-pyrazolo[3,4-b]pyridine]	212
N#CC1=C(c2cc3ccccc3s2)Nc2n[nH]cc2C1c1cccc2nonc12 (stereo not drawn) [Example 305, 4-(2,1,3-Benzoxadiazol-4-yl)-6-(benzothiophen-2-yl)-5-cyano-4,7-dihydro-2H-pyrazolo[3,4-b]pyridine]	220
N#CC1=C(C2CCCCC2)Nc2n[nH]cc2C1c1ccccc1Cl (stereo not drawn) [Example 306, 4-(2-Chlorophenyl)-5-cyano-6-cyclohexyl-4,7-dihydro-2H-pyrazolo[3,4-b]pyridine]	163
CC(C)(C)C1=C(C#N)C(c2ccccc2Cl)c2c[nH]nc2N1 (stereo not drawn) [Example 307, 6-t-Butyl-4-(2-chlorophenyl)-5-cyano-4,7-dihydro-2H-pyrazolo[3,4-b]pyridine]	198
CCCC1=C(C#N)C(c2ccccc2Cl)c2c(n[nH]c2C2CC2)N1 (stereo not drawn) [Example 308, 4-(2-Chlorophenyl)-5-cyano-3-cyclopropyl-4,7-dihydro-6-propyl-2H-pyrazolo[3,4-b]pyridine]	270
CCCC1=C(C#N)C(c2ccccc2Cl)c2c(n[nH]c2CC)N1 (stereo not drawn) [Example 309, 4-(2-Chlorophenyl)-5-cyano-4,7-dihydro-3-ethyl-6-propyl-2H-pyrazolo[3,4-b]pyridine]	269

Further lines, results first:

melting point [°C]	SMILES
> 270	CCCC1=C(C#N)C(c2ccccc2Cl)c2c(n[nH]c2C(C)(C)C)N1 (stereo not drawn) [Example 310, 3-t-Butyl-4-(2-chlorophenyl)-5-cyano-4,7-dihydro-6-propyl-2H-pyrazolo[3,4-b]pyridine]
> 270	CCCC1=C(C#N)C(c2ccccc2Cl)c2c(n[nH]c2C2CCCCC2)N1 (stereo not drawn) [Example 311, 4-(2-Chlorophenyl)-5-cyano-3-cyclohexyl-4,7-dihydro-6-propyl-2H-pyrazolo[3,4-b]pyridine]
146	N#CC1=C(C2CCCCCC2)Nc2n[nH]cc2C1c1ccccc1Cl (stereo not drawn) [Example 312, 4-(2-Chlorophenyl)-5-cyano-6-cycloheptyl-4,7-dihydro-2H-pyrazolo[3,4-b]pyridine]
188	N#CC1=C(C2CCC2)Nc2n[nH]cc2C1c1ccccc1Cl (stereo not drawn) [Example 313, 4-(2-Chlorophenyl)-5-cyano-6-cyclobutyl-4,7-dihydro-2H-pyrazolo[3,4-b]pyridine]
> 270	CCCC1=C(C#N)C(c2ccccc2Cl)c2c(n[nH]c2C2CCCC2)N1 (stereo not drawn) [Example 314, 4-(2-Chlorophenyl)-5-cyano-3-cyclopentyl-4,7-dihydro-6-propyl-2H-pyrazolo[3,4-b]pyridine]
> 270	CCCC1=C(C#N)C(c2ccccc2Cl)c2c(n[nH]c2C(C)C)N1 (stereo not drawn) [Example 315, 4-(2-Chlorophenyl)-5-cyano-4,7-dihydro-6-propyl-3-isopropyl-2H-pyrazolo[3,4-b]pyridine]
225	N#CC1=C(C2CCCC2)Nc2n[nH]cc2C1c1ccccc1Cl (stereo not drawn) [Example 316, 4-(2-Chlorophenyl)-5-cyano-6-cyclopentyl-4,7-dihydro-2H-pyrazolo[3,4-b]pyridine]
247	N#CC1=C(C2CCCC2)Nc2n[nH]cc2C1c1cccc(C#N)c1Br (stereo not drawn) [Example 317, 4-(2-Bromo-3-cyanophenyl)-5-cyano-6-cyclopentyl-4,7-dihydro-2H-pyrazolo[3,4-b]pyridine]
193	N#CC1=C(C2CCCC2)Nc2n[nH]cc2C1c1cccc2nonc12 (stereo not drawn) [Example 318, 4-(2,1,3-Benzoxadiazol-4-yl)-5-cyano-6-cyclopentyl-4,7-dihydro-2H-pyrazolo[3,4-b]pyridine]
251	CC(C)(C)C1=C(C#N)C(c2cccc(C#N)c2Br)c2c[nH]nc2N1 (stereo not drawn) [Example 319, 4-(2-Bromo-3-cyanophenyl)-6-t-butyl-5-cyano-4,7-dihydro-2H-pyrazolo[3,4-b]pyridine]
204	CC(C)(C)C1=C(C#N)C(c2cccc3nonc23)c2c[nH]nc2N1 (stereo not drawn) [Example 320, 4-(2,1,3-Benzoxadiazol-4-yl)-6-t-butyl-5-cyano-4,7-dihydro-2H-pyrazolo[3,4-b]pyridine]
278	N#CC1=C(C2CCC2)Nc2n[nH]cc2C1c1cccc(C#N)c1Br (stereo not drawn) [Example 321, 4-(2-Bromo-3-cyanophenyl)-5-cyano-6-cyclobutyl-4,7-dihydro-2H-pyrazolo[3,4-b]pyridine]
194	N#CC1=C(C2CCC2)Nc2n[nH]cc2C1c1cccc2nonc12 (stereo not drawn) [Example 322, 4-(2,1,3-Benzoxadiazol-4-yl)-5-cyano-6-cyclobutyl-4,7-dihydro-2H-pyrazolo[3,4-b]pyridine]
210	N#CC1=C(C2CCCCC2)Nc2n[nH]cc2C1c1cccc2nonc12 (stereo not drawn) [Example 323, 4-(2,1,3-Benzoxadiazol-4-yl)-5-cyano-6-cyclohexyl-4,7-dihydro-2H-pyrazolo[3,4-b]pyridine]
228	N#CC1=C(C2CCCCCC2)Nc2n[nH]cc2C1c1cccc2nonc12 (stereo not drawn) [Example 324, 4-(2,1,3-Benzoxadiazol-4-yl)-5-cyano-6-cycloheptyl-4,7-dihydro-2H-pyrazolo[3,4-b]pyridine]
193	N#CC1=C(C2CCCCC2)Nc2n[nH]cc2C1c1cccc(C#N)c1Br (stereo not drawn) [Example 325, 4-(2-Bromo-3-cyanophenyl)-5-cyano-6-cyclohexyl-4,7-dihydro-2H-pyrazolo[3,4-b]pyridine]
252	N#CC1=C(C2CCCCCC2)Nc2n[nH]cc2C1c1cccc(C#N)c1Br (stereo not drawn) [Example 326, 4-(2-Bromo-3-cyanophenyl)-5-cyano-6-cycloheptyl-4,7-dihydro-2H-pyrazolo[3,4-b]pyridine]
